Laboratory results reported in patent US11351164B2, “Inhibitors of indoleamine 2,3-dioxygenase and methods of their use” (BRISTOL-MYERS SQUIBB COMPANY, priority 2016, dated 2022).

Tests used:
[1] = target: T1, human IDO1 (Homo sapiens, UniProt P14902); assay: IDO inhibition assay in HEK293 cells stably expressing human IDO1 (kynurenine, Ehrlich reagent, absorbance 490 nm); format: cell-based; settings: 20 hours incubation, read-out: IDO1 HEK Human IC50
T1 construct: expressed in transfected cells
Experimental: HEK293 cells were transfected with a pCDNA-based mammalian expression vector harboring human IDO1 cDNA (NM 002164.2) by electroporation. They were cultured in medium (DMEM with 10% FBS) containing 1 mg/ml G418 for two weeks. Clones of HEK293 cells that stably expressed human IDO1 protein were selected and expanded for IDO inhibition assay. The human IDO1/HEK293 cells were seeded at 10,000 cells per 50 μL per well with RPMI/phenol red free media contains 10% FBS in a 384-well black wall clear bottom tissue culture plate (Matrix Technologies LLC) 100 nL of certain concentration of compound was then added to each well using ECHO liquid handling systems. The cells were incubated for 20 hours in 37° C. incubator with 5% CO2. The compound treatments were stopped by adding trichloroacetic acid (Sigma-Aldrich) to a final concentration at 0.2%. The cell plate was further incubated at 50° C. for 30 minute. The equal volume supernatant ([…]) and 0.2% (w/v) Ehrlich reagent (4-dimethylaminobenzaldehyde, Sigma-Aldrich) in glacial acetic acid were mixed in a new clear bottom 384-well plate. This plate was then incubated at room temperature for 30 minute. The absorbance at 490 nm was measured on Envision plate reader. Compound IC50 values were calculated using the counts of 500 nM of a reference standard treatment as one hundred percent inhibition, and counts of no compound but DMSO treatment as zero percent inhibition.

[2] = target: T2, indoleamine 2,3-dioxygenase (IDO) (Homo sapiens, UniProt P14902); assay: HeLa cell-based indoleamine 2,3-dioxygenase (IDO) assay (IFNγ-induced kynurenine production, absorbance 480 nm); settings: HeLa cells, IFNγ 25 ng/mL, 48 hour incubation
T2 construct: host or cells: HeLa cells treated with IFNγ (25 ng/mL)
Experimental: Assessment of inhibitor activity in HeLa cell-based indoleamine 2,3-dioxygenase (IDO) assay:
HeLa (ATCC® CCL-2) cells were obtained from the ATCC® and cultured in Dulbecco's Modified Eagle Medium supplemented with 4.5 g/L glucose, […] L-glutamine and […] (#10-013-CV, Corning), 2 mM L-alanyl-L-glutamine dipeptide (#35050-061, Gibco), 100U/mL penicillin, 100 μg/mL stroptomycin (#SV30010. HyClone) and 10% fetal bovine serum (#SH30071.03 HyClone). Cells were maintained in a humidified incubator at 37° C. in 5% CO2.
IDO activity was assessed as a function of kynurenine production as follows: HeLa cells were seeded in a 96-well culture plate at a density of 5,000 cells/well and allowed to equilibrate overnight. After 24 hours, the media was aspirated and replaced with media containing IFNγ (#285-IF/CF, R&D Systems) at a final concentration of 25 ng/mL. A serial dilution of each test compound was added to the cells in a total volume of 200 μL of culture medium. After a further 48 hour incubation, 170 μL of supernatant was transferred from each well to a fresh 96-well plate, 12.1 μL of 6.1N trichloroacetic acid (#T0699, Sigma-Aldrich) was added to each well and mixed, followed by incubation at 65° C. for 20 minutes to hydrolyze N-formylkynurenine, the product of indoleamine 2,3-dioxygenase, to kynurenine. The reaction mixture was then centrifuged for 10 mins at 500×g to sediment the precipitate. 100 μL of the supernatant was transferred from each well to a fresh 96-well plate. 100 μl of 2% (w/v) p-dimethylaminobenzaldehyde (#15647-7, Sigma-Aldrich) in acetic acid (#A6283, Sigma-Aldrich) was added to each well mixed and incubated at room temperature for 20 mins. Kynurenine concentrations were determined by measuring absorbance at 480 nm and calibrating against an L-kynurenine (#K8625, Sigma-Aldrich) standard curve using a SPECTRAMAX® M2e microplate reader (Molecular Devices). The percentage activity at each inhibitor concentration was determined and IC50 values assessed using nonlinear regression.

T2 sequence (P14902 whole entry): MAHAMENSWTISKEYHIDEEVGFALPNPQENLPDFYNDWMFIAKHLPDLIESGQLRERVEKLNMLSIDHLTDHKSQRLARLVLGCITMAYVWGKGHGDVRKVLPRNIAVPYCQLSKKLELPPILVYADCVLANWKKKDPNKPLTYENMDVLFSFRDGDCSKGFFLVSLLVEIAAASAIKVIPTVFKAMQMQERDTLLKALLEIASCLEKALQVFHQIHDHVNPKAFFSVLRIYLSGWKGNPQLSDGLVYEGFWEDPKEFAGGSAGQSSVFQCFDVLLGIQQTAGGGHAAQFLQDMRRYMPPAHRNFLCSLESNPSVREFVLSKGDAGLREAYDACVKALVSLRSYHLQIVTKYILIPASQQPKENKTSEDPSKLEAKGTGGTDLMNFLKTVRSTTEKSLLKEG
T1 sequence (P14902 whole entry): as above

| Structure (SMILES) | IC50 [1] [nM] | IC50 [2] [nM] |
| --- | --- | --- |
| C[C@@H](c1nnc(-c2ccc(F)cc2)[nH]1)[C@H]1CC[C@@H](c2ccnc3ccc(F)cc32)CC1 [Example 3, 6-Fluoro-4-((1s,4s)-4-((R)-1-(5-(4-fluorophenyl)-4H-1,2,4-triazol-3-yl)ethyl)cyclohexyl)quinoline] | 42.3 | 16.7 |
| C[C@@H](c1nnc(-c2ccc(Cl)cc2)s1)[C@H]1CC[C@@H](c2ccnc3ccc(F)cc32)CC1 [Example 5, 2-(4-Chlorophenyl)-5-((R)-1-((1s,4S)-4-(6-fluoroquinolin-4-yl)cyclohexyl)ethyl)-1,3,4-thiadiazole] | 15.1 | 35 |
| C[C@@H](c1nnc(-c2ccc(F)c(Cl)c2)[nH]1)[C@H]1CC[C@@H](c2ccnc3ccc(F)cc32)CC1 [Example 11, 4-((1S,4s)-4-((R)-1-(5-(3-chloro-4-fluorophenyl)-4H-1,2,4-triazol-3-yl)ethyl)cyclohexyl)-6-fluoroquinoline] | 86 | 162 |
| CC(C)Oc1ccc(-c2nnc([C@H](C)[C@H]3CC[C@@H](c4ccnc5ccc(F)cc54)CC3)[nH]2)cc1 [Example 12, 6-fluoro-4-((1S,4s)-4-((R)-1-(5-(4-isopropoxyphenyl)-4H-1,2,4-triazol-3-yl)ethyl)cyclohexyl)quinoline] | 22.5 | 39 |
| C[C@@H](c1nnc(-c2ccccc2)[nH]1)[C@H]1CC[C@@H](c2ccnc3ccc(F)cc32)CC1 [Example 13, 6-fluoro-4-((1S,4s)-4-((R)-1-(5-phenyl-4H-1,2,4-triazol-3-yl)ethyl)cyclohexyl)quinoline] | 48.2 | 118 |
| C[C@@H](c1nnc(-c2cccc(F)c2)[nH]1)[C@H]1CC[C@@H](c2ccnc3ccc(F)cc32)CC1 [Example 14, 6-fluoro-4-((1S,4s)-4-((R)-1-(5-(3-fluorophenyl)-4H-1,2,4-triazol-3-yl)ethyl)cyclohexyl)quinoline] | 36.2 | 72.2 |
| CC(C)Oc1ccc(-c2nnc([C@H](C)[C@H]3CC[C@@H](c4ccnc5ccc(F)cc54)CC3)o2)cc1 [Example 18, 2-((R)-1-((1s,4S)-4-(6-fluoroquinolin-4-yl)cyclohexyl)ethyl)-5-(4-isopropoxyphenyl)-1,3,4-oxadiazole] | 66.3 | 55.5 |
| C[C@@H](c1nnc(-c2ccccc2)o1)[C@H]1CC[C@@H](c2ccnc3ccc(F)cc32)CC1 [Example 19, 2-((R)-1-((1s,4S)-4-(6-fluoroquinolin-4-yl)cyclohexyl)ethyl)-5-phenyl-1,3,4-oxadiazole] | 13.8 | 5.5 |
| C[C@@H](c1nnc(Nc2ccccc2)[nH]1)[C@H]1CC[C@@H](c2ccnc3ccc(F)cc32)CC1 [Example 22, 5-((R)-1-((1s,4s)-4-(6-Fluoroquinolin-4-yl)cyclohexyl)ethyl)-N-phenyl-4H-1,2,4-triazol-3-amine] | 5.9 | 8.8 |
| C[C@@H](Nc1nnc(-c2ccc(Cl)cc2)s1)[C@H]1CC[C@@H](c2ccnc3ccc(F)cc32)CC1 [Example 24, 5-(4-Chlorophenyl)-N—((R)-1-((1s,4S)-4-(6-fluoroquinolin-4-yl)cyclohexyl)ethyl)-1,3,4-thiadiazol-2-amine] | 5.5 | 5.4 |
| C[C@@H](Nc1nnc(-c2ccc(C#N)cc2)o1)[C@H]1CC[C@@H](c2ccnc3ccc(F)cc32)CC1 [Example 29, 4-(5-((R)-1-((1s,4S)-4-(6-fluoroquinolin-4-yl)cyclohexyl)ethylamino)-1,3,4-oxadiazol-2-yl)benzonitrile] | 23.5 | 55.3 |
| Cc1cnc(-c2nnc(N[C@H](C)[C@H]3CC[C@@H](c4ccnc5ccc(F)cc54)CC3)o2)s1 [Example 30, N-((R)-1-((1s,4S)-4-(6-fluoroquinolin-4-yl)cyclohexyl)ethyl)-5-(5-methylthiazol-2-yl)-1,3,4 oxadiazol-2-amine] | 10.6 | 13.3 |
| C[C@@H](Nc1nnc(-c2ccc(C#N)cc2)[nH]1)[C@H]1CC[C@@H](c2ccnc3ccc(F)cc32)CC1 [Example 41, 4-(5-((R)-1-((1s,4S)-4-(6-Fluoroquinolin-4-yl)cyclohexyl)ethylamino)-4H-1,2,4-triazol-3-yl)benzonitrile] | 23.1 | 390 |
| C[C@@H](c1ncc(-c2ccc(Cl)cc2)[nH]1)[C@H]1CC[C@@H](c2ccnc3ccc(F)cc32)CC1 [Example 44, 4-((1s,4s)-4-((R)-1-(5-(4-Chlorophenyl)-1H-imidazol-2-yl)ethyl)cyclohexyl)-6-fluoroquinoline] | 12.4 | 10.5 |
